Holding throughout (test): biochemical
Holding throughout (assay type): biochemical

The target of assay [1] is 363 human kinases (including Aurora A/B/C) (Homo sapiens, UniProt Q15569). The conditions noted are these: TESK1; for remaining activity at 0.5 µM / remaining activity at 0.1 µM: read-out: % Enzyme Activity (relative to DMSO controls); for remaining activity at 0.1 µM: 100 nM.
Text: (§1) However, the Aurora A/B selectivity ratios derived from our in vitro and in vivo data can be compared to prioritize inhibitors.
For assay [2], the target named is 363 human kinases (including Aurora A/B/C) (Homo sapiens, UniProt Q9NQU5). The conditions noted are these: PAK6; for remaining activity at 0.5 µM / remaining activity at 0.1 µM: read-out: % Enzyme Activity (relative to DMSO controls); for remaining activity at 0.1 µM: 100 nM.
Text: as §1
Assay [3] addresses T1, 363 human kinases (including Aurora A/B/C) (Homo sapiens, UniProt Q6VAB6).
T1 sequence (Q6VAB6 1-950): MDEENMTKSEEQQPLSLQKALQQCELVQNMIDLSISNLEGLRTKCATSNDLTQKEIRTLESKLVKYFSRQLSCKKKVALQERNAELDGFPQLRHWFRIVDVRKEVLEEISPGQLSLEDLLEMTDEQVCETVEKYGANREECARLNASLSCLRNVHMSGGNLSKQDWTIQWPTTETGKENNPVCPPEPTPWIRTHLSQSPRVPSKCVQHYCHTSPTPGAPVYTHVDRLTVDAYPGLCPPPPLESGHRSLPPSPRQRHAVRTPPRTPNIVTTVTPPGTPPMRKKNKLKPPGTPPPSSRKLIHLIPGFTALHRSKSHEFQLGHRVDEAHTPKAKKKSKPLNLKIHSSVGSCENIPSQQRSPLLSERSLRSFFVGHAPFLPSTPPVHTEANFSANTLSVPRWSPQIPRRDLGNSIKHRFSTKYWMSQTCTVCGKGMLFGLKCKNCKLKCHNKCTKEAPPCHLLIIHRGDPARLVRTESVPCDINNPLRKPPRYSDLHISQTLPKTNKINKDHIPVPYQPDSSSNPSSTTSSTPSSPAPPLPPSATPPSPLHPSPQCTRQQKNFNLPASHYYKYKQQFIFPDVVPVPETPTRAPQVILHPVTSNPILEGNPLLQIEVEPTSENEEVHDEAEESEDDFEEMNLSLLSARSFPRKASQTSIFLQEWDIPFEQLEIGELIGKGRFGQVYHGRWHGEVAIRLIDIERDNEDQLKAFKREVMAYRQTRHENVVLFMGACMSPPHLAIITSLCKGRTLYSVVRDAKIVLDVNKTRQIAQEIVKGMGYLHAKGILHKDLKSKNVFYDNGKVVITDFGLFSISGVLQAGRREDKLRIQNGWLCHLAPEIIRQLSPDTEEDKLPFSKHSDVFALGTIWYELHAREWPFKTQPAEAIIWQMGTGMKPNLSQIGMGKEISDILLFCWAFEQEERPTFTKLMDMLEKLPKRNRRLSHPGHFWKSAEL
The conditions noted are these: KSR2; for remaining activity at 0.5 µM / remaining activity at 0.1 µM: read-out: % Enzyme Activity (relative to DMSO controls); for remaining activity at 0.1 µM: 100 nM.
Text: as §1

The target in assay [4] is 363 human kinases (including Aurora A/B/C) (Homo sapiens, UniProt Q13464). The conditions noted are these: ROCK1; for remaining activity at 0.5 µM / remaining activity at 0.1 µM: read-out: % Enzyme Activity (relative to DMSO controls); for remaining activity at 0.1 µM: 100 nM.
Text: as §1
The target in assay [5] is T2, 363 human kinases (including Aurora A/B/C) (Homo sapiens, UniProt P51813).
T2 sequence (P51813 1-675): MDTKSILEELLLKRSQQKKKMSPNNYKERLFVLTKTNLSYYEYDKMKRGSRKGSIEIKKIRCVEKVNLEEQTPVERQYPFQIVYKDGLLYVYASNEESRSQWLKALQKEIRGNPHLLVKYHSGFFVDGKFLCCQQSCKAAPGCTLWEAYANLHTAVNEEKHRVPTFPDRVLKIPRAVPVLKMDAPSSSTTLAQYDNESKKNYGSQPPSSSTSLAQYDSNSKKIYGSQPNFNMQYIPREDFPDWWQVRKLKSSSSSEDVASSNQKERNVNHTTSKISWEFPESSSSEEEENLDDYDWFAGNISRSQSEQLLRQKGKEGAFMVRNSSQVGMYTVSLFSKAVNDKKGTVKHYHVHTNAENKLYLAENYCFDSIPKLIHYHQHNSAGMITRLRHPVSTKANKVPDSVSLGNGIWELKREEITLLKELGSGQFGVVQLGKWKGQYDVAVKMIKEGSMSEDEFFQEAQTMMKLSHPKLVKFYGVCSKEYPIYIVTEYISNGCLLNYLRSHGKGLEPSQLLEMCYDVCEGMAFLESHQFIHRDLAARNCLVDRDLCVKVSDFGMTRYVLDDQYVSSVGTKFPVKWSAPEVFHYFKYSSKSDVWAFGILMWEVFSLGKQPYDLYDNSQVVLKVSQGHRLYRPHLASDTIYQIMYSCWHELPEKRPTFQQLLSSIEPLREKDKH
To be noted: BMX/ETK, [ATP] 50 µM; for remaining activity at 0.5 µM / remaining activity at 0.1 µM: read-out: % Enzyme Activity (relative to DMSO controls); for remaining activity at 0.1 µM: 100 nM.
Text: as §1

The target in assay [6] is T3, 363 human kinases (including Aurora A/B/C) (Homo sapiens, UniProt Q09013).
T3 sequence (Q09013 1-629): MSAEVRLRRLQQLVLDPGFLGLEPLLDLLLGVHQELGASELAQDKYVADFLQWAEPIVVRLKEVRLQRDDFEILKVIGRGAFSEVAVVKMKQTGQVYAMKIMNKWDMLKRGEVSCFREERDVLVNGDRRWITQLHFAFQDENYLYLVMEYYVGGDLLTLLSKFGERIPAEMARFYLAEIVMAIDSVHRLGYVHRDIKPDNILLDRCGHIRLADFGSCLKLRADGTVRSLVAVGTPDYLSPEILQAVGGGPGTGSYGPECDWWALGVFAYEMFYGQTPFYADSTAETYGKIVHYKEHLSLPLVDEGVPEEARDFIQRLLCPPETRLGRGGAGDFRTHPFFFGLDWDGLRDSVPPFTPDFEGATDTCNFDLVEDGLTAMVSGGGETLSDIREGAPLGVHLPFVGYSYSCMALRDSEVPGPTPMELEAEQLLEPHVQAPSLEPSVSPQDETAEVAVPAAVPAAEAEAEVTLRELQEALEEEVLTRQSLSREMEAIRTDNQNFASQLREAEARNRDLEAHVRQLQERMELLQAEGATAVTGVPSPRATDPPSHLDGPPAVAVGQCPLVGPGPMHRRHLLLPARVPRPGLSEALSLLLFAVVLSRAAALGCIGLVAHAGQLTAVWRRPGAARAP
The conditions noted are these: DMPK, [ATP] 15 µM; for remaining activity at 0.5 µM / remaining activity at 0.1 µM: read-out: % Enzyme Activity (relative to DMSO controls); for remaining activity at 0.1 µM: 100 nM.
Text: as §1

Sequence of 363 human kinases (including Aurora A/B/C) (Homo sapiens, UniProt Q9NQU5) (Q9NQU5 whole entry): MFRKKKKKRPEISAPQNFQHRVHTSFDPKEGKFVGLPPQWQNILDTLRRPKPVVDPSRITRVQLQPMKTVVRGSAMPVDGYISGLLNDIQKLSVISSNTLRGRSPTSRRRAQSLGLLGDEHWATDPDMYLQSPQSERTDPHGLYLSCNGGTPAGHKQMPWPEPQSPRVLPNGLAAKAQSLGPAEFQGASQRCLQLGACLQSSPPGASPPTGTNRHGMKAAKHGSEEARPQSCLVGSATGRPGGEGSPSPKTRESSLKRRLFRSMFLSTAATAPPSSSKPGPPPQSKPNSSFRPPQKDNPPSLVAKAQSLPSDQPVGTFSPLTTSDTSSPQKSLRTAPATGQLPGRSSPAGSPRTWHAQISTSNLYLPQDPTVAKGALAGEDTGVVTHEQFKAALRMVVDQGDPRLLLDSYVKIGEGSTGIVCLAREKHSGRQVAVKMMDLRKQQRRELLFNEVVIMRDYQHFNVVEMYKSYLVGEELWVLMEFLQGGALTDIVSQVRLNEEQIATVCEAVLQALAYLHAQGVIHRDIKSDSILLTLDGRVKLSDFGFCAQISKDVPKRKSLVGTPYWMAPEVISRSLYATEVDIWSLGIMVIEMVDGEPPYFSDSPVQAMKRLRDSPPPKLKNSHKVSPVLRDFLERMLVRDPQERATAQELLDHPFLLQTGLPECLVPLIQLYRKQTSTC
Sequence of 363 human kinases (including Aurora A/B/C) (Homo sapiens, UniProt Q15569) (Q15569 whole entry): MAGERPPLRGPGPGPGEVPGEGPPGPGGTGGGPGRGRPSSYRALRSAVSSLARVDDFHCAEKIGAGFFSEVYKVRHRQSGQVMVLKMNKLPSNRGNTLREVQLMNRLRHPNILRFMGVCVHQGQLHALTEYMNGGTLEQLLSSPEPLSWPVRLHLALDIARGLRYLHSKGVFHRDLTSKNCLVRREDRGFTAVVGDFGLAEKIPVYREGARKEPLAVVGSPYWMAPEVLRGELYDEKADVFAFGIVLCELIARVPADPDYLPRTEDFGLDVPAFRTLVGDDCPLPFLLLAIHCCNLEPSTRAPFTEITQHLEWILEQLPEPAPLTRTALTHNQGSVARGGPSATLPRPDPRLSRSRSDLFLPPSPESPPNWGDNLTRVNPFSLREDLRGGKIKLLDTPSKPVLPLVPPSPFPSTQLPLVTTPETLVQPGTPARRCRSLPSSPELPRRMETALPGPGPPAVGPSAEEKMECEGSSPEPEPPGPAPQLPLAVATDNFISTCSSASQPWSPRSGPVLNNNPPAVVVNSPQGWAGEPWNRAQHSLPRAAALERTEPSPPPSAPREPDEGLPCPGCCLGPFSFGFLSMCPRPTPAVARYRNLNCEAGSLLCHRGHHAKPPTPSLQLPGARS
Sequence of 363 human kinases (including Aurora A/B/C) (Homo sapiens, UniProt Q13464) (Q13464 whole entry): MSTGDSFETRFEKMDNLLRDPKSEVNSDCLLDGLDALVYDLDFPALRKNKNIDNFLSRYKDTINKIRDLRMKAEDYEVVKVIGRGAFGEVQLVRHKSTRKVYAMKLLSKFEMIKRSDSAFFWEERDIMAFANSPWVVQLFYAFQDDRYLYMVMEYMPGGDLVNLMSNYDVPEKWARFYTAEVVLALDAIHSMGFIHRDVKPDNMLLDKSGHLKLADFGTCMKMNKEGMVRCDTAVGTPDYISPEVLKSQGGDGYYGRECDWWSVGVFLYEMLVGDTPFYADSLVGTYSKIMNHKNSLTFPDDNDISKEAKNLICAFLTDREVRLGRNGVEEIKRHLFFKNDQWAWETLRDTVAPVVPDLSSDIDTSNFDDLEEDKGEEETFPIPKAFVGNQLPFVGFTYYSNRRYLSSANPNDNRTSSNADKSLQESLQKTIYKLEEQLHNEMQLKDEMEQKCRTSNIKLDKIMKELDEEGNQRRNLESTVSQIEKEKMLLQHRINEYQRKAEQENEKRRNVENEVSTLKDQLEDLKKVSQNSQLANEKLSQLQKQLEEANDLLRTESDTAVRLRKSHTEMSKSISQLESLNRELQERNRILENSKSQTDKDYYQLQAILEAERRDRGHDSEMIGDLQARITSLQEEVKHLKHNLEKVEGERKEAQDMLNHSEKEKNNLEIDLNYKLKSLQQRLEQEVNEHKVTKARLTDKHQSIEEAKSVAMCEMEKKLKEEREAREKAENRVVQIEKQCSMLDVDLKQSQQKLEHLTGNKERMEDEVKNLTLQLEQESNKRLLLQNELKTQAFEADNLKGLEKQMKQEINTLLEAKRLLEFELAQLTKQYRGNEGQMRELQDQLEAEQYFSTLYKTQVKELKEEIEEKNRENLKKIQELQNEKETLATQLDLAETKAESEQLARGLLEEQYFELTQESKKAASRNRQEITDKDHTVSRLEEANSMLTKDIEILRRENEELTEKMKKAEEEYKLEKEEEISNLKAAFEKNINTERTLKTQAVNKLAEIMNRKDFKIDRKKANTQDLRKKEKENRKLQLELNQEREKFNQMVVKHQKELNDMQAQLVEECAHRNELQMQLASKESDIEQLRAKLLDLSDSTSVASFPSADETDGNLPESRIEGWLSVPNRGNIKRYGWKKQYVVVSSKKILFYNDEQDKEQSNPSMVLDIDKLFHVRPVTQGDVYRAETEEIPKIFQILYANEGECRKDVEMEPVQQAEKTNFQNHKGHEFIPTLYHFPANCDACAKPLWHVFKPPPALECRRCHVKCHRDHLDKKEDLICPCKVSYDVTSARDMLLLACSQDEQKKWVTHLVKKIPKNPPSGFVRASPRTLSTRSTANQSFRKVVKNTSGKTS

On to `O=C(c1cccc(Cl)c1F)N1CCN(Cc2cccc(Nc3nccs3)n2)CC1` [MK-8745], for which the “% Enzyme Activity (relative to DMSO controls)” value in assay [1] (500 nM) turned out to be 97.82%; in assay [2] (500 nM), 89.27%; in assay [3] (500 nM), 95.49%; in assay [4] (500 nM), 98.74%; in assay [5] (500 nM) it was 88.19%; in assay [6] (500 nM), 114.90%. Also, the remaining activity at 0.5 µM in assay [1] (500 nM) came to 99.9%; in assay [2] (500 nM), 90.3%; in assay [3] (500 nM), 98.3%; in assay [4] (500 nM), 98.9%; in assay [5] (500 nM) it was 90.7%; in assay [6] (500 nM) it was 115%.

As for `CCn1cc(-c2ccnc3[nH]c(-c4cccc(CN(C)C)c4)cc23)c(-c2ccc(NC(=O)N(C)C)cc2)n1` [GSK1070916], the remaining activity at 0.1 µM was 103% in assay [1]; 103% in assay [2]; 101% in assay [3]; 101% in assay [4]; 96.1% in assay [5]; 114% in assay [6].

For `O=C(O)[C@]1(Cc2cccc(Nc3nccs3)n2)CC[C@@H](Oc2cccc(Cl)c2F)CC1` [MK-5108], the remaining activity at 0.1 µM in assay [1] turned out to be 97.9%; in assay [2], 99.8%; in assay [3] it was 95.6%; in assay [4] it was 99.8%; in assay [5], 48.1%; in assay [6], 105%. Besides, the remaining activity at 0.5 µM in assay [1] (500 nM) was 99.8%; in assay [2] (500 nM), 97%; in assay [3] (500 nM), 94.5%; in assay [4] (500 nM), 102%; in assay [5] (500 nM), 14.2%; in assay [6] (500 nM), 115%.
